Laboratory results taken from patent publication US9693556B2, “Herbicidal pyridazinone derivatives” (SYNGENTA LIMITED, priority 2011, dated 2017).

How the values were obtained:
Type in all cases: in vivo
Setaria faberi (SETFA) [1] = assay: Pre-emergence herbicidal glasshouse test on Setaria faberi; details: pre-emergence; 1000 g/h; evaluated after 13 days
Procedure, shortened: (§1)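 Steps: sow seeds in standard soil; cultivate 1 d (pre-) or 8 d (post-emergence) at 24/16 °C, 14 h light, 65% humidity; spray 1000 g/h in acetone/water plus Tween 20; grow on, watering twice daily; score percentage damage after 13 d.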

Setaria faberi (SETFA) [2] = assay: Post-emergence herbicidal glasshouse test on Setaria faberi; details: post-emergence; 1000 g/h; evaluated after 13 days
Procedure, shortened: as §1

Solanum nigrum (SOLNI) [3] = assay: Pre-emergence herbicidal glasshouse test on Solanum nigrum; details: pre-emergence; 1000 g/h; evaluated after 13 days
Procedure, shortened: as §1

[4] = tested on: Amaranthus retoflexus (AMARE); assay: Pre-emergence herbicidal glasshouse test on Amaranthus retoflexus; details: pre-emergence; 1000 g/h; evaluated after 13 days
Procedure, shortened: as §1

Solanum nigrum (SOLNI) [5] = assay: Post-emergence herbicidal glasshouse test on Solanum nigrum; details: post-emergence; 1000 g/h; evaluated after 13 days
Procedure, shortened: as §1

[6] = tested on: Amaranthus retoflexus (AMARE); assay: Post-emergence herbicidal glasshouse test on Amaranthus retoflexus; details: post-emergence; 1000 g/h; evaluated after 13 days
Procedure, shortened: as §1

[7] = tested on: Alopecurus myosuroides (ALOMY); assay: Post-emergence herbicidal glasshouse test on Alopecurus myosuroides; details: post-emergence; 1000 g/h; evaluated after 13 days
Procedure, shortened: as §1

[8] = tested on: Echinochloa crus-galli (ECHCG); assay: Post-emergence herbicidal glasshouse test on Echinochloa crus-galli; details: post-emergence; 1000 g/h; evaluated after 13 days
Procedure, shortened: as §1

[9] = tested on: Ipomoea hederacea (IPOHE); assay: Post-emergence herbicidal glasshouse test on Ipomoea hederacea; details: post-emergence; 1000 g/h; evaluated after 13 days
Procedure, shortened: as §1

[10] = tested on: Ipomoea hederacea (IPOHE); assay: Pre-emergence herbicidal glasshouse test on Ipomoea hederacea; details: pre-emergence; 1000 g/h; evaluated after 13 days
Procedure, shortened: as §1

[11] = tested on: Echinochloa crus-galli (ECHCG); assay: Pre-emergence herbicidal glasshouse test on Echinochloa crus-galli; details: pre-emergence; 1000 g/h; evaluated after 13 days
Procedure, shortened: as §1

[12] = tested on: Alopecurus myosuroides (ALOMY); assay: Pre-emergence herbicidal glasshouse test on Alopecurus myosuroides; details: pre-emergence; 1000 g/h; evaluated after 13 days
Procedure, shortened: as §1

SMILES	PRE Application SETFA herbicidal damage (five point scale) (Setaria faberi (SETFA) [1])	POST Application SETFA herbicidal damage (five point scale) (Setaria faberi (SETFA) [2])	PRE Application SOLNI herbicidal damage (five point scale) (Solanum nigrum (SOLNI) [3])	PRE Application AMARE herbicidal damage (five point scale) [4]	POST Application SOLNI herbicidal damage (five point scale) (Solanum nigrum (SOLNI) [5])	POST Application AMARE herbicidal damage (five point scale) [6]	POST Application ALOMY herbicidal damage (five point scale) [7]	POST Application ECHCG herbicidal damage (five point scale) [8]	POST Application IPOHE herbicidal damage (five point scale) [9]	PRE Application IPOHE herbicidal damage (five point scale) [10]	PRE Application ECHCG herbicidal damage (five point scale) [11]	PRE Application ALOMY herbicidal damage (five point scale) [12]
C=Cc1ccccc1-c1c(C(F)(F)F)ccn(-c2cnn(C)c(=O)c2O)c1=O [Compound 7.034]	1 (1=0-19% damage)	3 (3=40-59% damage)	5 (5=80-100% damage)	5 (5=80-100% damage)	5 (5=80-100% damage)	5 (5=80-100% damage)	1 (1=0-19% damage)	3 (3=40-59% damage)	2 (2=20-39% damage)	1 (1=0-19% damage)	1 (1=0-19% damage)	2 (2=20-39% damage)
Cn1ncc(-c2ccc(S(=O)(=O)Cc3ccccc3)cc2S(C)(=O)=O)c(O)c1=O [Compound 2.036]	5 (5=80-100% damage)	5 (5=80-100% damage)	5 (5=80-100% damage)	5 (5=80-100% damage)	5 (5=80-100% damage)	5 (5=80-100% damage)	5 (5=80-100% damage)	5 (5=80-100% damage)	5 (5=80-100% damage)	5 (5=80-100% damage)	5 (5=80-100% damage)	5 (5=80-100% damage)
Cn1ncc(-c2ccc(C(F)(F)F)cc2S(=O)(=O)N2CCOCC2)c(O)c1=O [Compound 2.049]	2 (2=20-39% damage)	1 (1=0-19% damage)	5 (5=80-100% damage)	5 (5=80-100% damage)	5 (5=80-100% damage)	5 (5=80-100% damage)	1 (1=0-19% damage)	5 (5=80-100% damage)	5 (5=80-100% damage)	4 (4=60-79% damage)	5 (5=80-100% damage)	1 (1=0-19% damage)
CCn1ncc(-c2ccc(C(F)(F)F)nc2S(C)(=O)=O)c(O)c1=O [Compound 4.001]	5 (5=80-100% damage)	5 (5=80-100% damage)	5 (5=80-100% damage)	5 (5=80-100% damage)	5 (5=80-100% damage)	5 (5=80-100% damage)	5 (5=80-100% damage)	5 (5=80-100% damage)	5 (5=80-100% damage)	5 (5=80-100% damage)	5 (5=80-100% damage)	5 (5=80-100% damage)
Cn1ncc(-c2cc(Cl)ccc2Cl)c(O)c1=O [Compound 1.099]	1 (1=0-19% damage)	1 (1=0-19% damage)	1 (1=0-19% damage)	1 (1=0-19% damage)	2 (2=20-39% damage)	3 (3=40-59% damage)	1 (1=0-19% damage)	1 (1=0-19% damage)	2 (2=20-39% damage)	1 (1=0-19% damage)	1 (1=0-19% damage)	1 (1=0-19% damage)
